{"source": "paper PMC4461516", "about": "(Bioorganic & medicinal chemistry, 2015)", "key": {"[1]": {"system": "behavioral toxicity", "conditions": "rat, po; cited from earlier work"}, "[2]": {"system": "subcutaneous Metrazol (scMet) seizure", "conditions": "cited from earlier work"}, "[3]": {"biological_target": "T1, Na+ currents in CAD cells (mostly Nav1.7) (Mus musculus, UniProt Q62205)", "T1 sequence (Q62205 whole entry)": "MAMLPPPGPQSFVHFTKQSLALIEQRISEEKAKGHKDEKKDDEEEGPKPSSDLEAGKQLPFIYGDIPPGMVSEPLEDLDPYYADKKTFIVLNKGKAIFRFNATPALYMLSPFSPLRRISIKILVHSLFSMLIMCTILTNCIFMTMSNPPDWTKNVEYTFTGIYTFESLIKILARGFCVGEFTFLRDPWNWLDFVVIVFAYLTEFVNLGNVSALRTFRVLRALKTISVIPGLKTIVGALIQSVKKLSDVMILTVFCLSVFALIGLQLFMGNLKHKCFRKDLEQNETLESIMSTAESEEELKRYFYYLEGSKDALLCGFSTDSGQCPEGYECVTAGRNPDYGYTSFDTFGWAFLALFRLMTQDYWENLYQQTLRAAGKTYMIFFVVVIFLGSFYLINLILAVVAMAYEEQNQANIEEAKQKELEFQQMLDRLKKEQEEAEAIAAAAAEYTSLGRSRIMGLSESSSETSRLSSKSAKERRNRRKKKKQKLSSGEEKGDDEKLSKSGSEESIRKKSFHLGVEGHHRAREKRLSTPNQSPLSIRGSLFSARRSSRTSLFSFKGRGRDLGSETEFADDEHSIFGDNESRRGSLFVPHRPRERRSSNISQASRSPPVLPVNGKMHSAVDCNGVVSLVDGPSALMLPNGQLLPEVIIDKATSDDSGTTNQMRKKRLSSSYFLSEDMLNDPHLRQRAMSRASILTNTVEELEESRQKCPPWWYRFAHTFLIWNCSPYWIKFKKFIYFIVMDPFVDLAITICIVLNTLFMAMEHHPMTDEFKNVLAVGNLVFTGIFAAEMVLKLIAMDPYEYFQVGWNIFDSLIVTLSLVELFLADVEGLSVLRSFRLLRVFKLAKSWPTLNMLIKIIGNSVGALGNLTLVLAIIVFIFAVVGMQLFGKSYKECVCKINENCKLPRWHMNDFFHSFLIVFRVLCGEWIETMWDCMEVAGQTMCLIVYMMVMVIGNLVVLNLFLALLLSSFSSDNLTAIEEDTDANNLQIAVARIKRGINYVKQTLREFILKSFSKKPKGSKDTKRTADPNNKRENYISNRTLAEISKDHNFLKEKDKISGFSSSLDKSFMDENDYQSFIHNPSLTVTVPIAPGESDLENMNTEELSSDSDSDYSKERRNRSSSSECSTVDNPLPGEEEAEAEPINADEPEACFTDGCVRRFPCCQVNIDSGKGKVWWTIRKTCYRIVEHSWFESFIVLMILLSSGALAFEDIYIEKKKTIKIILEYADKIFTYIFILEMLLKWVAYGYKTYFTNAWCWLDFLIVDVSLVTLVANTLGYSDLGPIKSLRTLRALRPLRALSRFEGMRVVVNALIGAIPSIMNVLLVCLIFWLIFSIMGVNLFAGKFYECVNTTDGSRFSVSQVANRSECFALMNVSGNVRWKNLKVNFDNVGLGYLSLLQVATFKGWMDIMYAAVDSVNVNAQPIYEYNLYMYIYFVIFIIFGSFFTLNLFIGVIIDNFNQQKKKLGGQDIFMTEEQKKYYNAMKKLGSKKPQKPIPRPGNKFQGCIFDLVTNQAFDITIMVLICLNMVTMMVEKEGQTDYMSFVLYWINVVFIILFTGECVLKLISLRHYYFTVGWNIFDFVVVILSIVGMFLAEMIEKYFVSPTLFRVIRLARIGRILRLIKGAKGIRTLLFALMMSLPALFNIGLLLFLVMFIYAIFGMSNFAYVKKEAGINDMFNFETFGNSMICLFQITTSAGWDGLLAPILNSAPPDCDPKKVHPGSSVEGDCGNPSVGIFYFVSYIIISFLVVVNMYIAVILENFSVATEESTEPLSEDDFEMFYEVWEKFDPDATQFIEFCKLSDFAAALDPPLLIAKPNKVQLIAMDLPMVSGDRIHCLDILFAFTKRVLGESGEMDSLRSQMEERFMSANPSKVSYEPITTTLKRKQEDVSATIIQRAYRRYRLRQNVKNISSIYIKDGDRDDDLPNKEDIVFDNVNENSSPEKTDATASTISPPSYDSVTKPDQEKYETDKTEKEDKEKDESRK", "conditions": "read-out: Slow inactivation IC50, at −50 mV; cited from earlier work"}, "[4]": {"system": "6 Hz (32 mA) psychomotor seizure", "test": "6 Hz", "assay_type": "in vivo, mice", "conditions": "Mus musculus, ip, read-out: 6 Hz ED50"}, "[5]": {"test": "Rotorod test for neurological impairment, mice ip", "conditions": "mouse, in vivo"}, "[6]": {"system": "maximal electroshock seizure", "test": "Maximal electroshock seizure", "assay_type": "in vivo, mice", "conditions": "Mus musculus, ip, read-out: MES ED50"}, "[7]": {"system": "6 Hz (32 mA) psychomotor seizure", "conditions": "mice, ip, time (h) in brackets; cited from earlier work"}, "[8]": {"system": "maximal electroshock seizure", "conditions": "rat, po, cited from earlier work"}, "[9]": {"system": "voltage-gated sodium channels (Nav1.1, Nav1.2, Nav1.3, Nav1.6) in rat embryonic cortical neurons", "test": "Whole-cell patch-clamp of Na+ currents in rat embryonic cortical neurons", "assay_type": "cell-based", "conditions": "10 μM, vs 0.1% DMSO control"}, "[10]": {"biological_target": "T2, CYP1A2 (Homo sapiens, UniProt P05177)", "T2 sequence (P05177 1-516)": "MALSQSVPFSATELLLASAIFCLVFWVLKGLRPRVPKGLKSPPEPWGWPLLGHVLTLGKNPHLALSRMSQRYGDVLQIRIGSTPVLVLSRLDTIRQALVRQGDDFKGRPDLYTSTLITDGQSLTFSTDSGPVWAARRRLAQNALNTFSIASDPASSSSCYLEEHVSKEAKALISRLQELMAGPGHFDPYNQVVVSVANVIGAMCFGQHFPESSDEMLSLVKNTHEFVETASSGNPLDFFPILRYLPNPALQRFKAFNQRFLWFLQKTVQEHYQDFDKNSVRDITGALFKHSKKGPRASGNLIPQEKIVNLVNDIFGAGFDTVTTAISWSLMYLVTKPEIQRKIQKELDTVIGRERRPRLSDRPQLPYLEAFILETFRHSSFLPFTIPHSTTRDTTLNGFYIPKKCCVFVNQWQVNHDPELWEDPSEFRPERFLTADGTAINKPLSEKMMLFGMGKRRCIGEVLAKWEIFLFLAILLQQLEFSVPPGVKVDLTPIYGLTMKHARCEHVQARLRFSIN", "test": "CYP450 inhibition panel: CYP1A2", "assay_type": "in vitro ADME", "conditions": "10 μM; data not shown"}, "[11]": {"biological_target": "CYP2D6 (Homo sapiens, UniProt P10635)", "sequence (P10635 whole entry)": "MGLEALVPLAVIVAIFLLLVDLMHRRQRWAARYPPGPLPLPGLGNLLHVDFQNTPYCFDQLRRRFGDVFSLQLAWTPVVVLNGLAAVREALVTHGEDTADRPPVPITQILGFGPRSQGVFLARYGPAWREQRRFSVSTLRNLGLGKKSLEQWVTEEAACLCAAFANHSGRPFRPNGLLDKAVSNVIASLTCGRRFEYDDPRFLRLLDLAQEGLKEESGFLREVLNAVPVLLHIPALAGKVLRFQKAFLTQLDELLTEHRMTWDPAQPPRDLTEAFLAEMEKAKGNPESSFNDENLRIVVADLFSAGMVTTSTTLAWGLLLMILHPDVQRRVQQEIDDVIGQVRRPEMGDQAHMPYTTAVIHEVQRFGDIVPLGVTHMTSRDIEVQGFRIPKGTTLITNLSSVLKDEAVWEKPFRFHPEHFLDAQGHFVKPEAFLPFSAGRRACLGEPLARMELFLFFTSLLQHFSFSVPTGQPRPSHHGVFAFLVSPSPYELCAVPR", "test": "CYP450 inhibition panel: CYP2D6", "assay_type": "in vitro ADME", "conditions": "10 μM; data not shown"}, "[12]": {"biological_target": "T1, Na+ currents in CAD cells (mostly Nav1.7)", "test": "Whole-cell patch-clamp of Na+ currents in CAD cells", "assay_type": "cell-based", "conditions": "any concentration tested, control V1/2 −19.5 ± 2.8 mV"}, "[13]": {"biological_target": "CYP2C9 (Homo sapiens, UniProt P11712)", "sequence (P11712 whole entry)": "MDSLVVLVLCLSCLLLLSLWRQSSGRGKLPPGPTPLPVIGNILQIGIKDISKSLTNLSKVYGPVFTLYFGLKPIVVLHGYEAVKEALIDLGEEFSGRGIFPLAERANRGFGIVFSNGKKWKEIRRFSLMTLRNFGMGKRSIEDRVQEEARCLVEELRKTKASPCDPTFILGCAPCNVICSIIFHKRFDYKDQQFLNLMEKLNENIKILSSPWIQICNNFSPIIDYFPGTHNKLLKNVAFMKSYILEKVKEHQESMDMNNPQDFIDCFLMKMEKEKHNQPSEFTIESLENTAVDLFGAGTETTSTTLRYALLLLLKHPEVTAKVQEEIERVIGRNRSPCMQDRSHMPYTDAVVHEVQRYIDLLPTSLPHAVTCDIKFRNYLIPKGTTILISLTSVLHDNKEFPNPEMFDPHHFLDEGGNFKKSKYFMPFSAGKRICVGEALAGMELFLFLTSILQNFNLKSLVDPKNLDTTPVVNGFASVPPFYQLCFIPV", "test": "CYP450 inhibition panel: CYP2C9", "assay_type": "in vitro ADME", "conditions": "10 μM; data not shown"}, "[14]": {"biological_target": "hERG K+ channel (Homo sapiens, UniProt Q12809)", "sequence (Q12809 whole entry)": "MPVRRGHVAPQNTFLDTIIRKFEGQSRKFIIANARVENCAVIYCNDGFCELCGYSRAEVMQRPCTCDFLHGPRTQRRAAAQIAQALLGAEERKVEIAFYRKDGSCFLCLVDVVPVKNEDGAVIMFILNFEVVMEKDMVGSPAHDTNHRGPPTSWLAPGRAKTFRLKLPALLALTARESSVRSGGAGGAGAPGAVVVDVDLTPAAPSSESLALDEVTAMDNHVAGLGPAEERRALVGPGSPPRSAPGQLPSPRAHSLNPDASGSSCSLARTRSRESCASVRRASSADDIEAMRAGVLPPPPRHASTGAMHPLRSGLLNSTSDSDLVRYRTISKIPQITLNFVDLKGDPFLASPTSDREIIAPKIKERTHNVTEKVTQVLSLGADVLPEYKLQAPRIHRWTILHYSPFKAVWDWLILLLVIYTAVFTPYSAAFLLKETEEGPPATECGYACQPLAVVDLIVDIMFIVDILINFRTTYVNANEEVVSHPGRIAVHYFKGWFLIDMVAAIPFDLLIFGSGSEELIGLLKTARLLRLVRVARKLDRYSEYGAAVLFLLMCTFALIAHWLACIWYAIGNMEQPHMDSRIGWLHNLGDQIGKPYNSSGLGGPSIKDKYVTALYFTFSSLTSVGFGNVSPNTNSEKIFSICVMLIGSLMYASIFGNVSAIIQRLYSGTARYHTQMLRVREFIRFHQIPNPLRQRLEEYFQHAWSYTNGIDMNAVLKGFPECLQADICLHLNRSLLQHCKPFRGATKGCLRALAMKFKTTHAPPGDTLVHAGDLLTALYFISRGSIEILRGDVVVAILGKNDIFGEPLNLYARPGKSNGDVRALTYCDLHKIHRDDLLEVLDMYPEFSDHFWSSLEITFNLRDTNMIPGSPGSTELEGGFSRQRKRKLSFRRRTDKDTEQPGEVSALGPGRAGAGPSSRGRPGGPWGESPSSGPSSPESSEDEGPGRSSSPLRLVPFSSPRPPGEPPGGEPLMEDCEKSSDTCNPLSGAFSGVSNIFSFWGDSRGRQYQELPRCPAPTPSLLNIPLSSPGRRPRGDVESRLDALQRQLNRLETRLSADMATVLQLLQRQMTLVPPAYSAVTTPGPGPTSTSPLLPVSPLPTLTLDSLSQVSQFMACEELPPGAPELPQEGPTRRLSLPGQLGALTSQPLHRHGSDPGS", "test": "hERG K+ channel activity", "assay_type": "cell-based", "conditions": "30 μM; Patch Express; data not shown"}, "[15]": {"system": "CYP3A4/5", "test": "CYP450 inhibition panel: CYP3A4/5", "assay_type": "in vitro ADME, human", "conditions": "10 μM; data not shown"}, "[16]": {"biological_target": "T3, CYP2B6 (Homo sapiens, UniProt P20813)", "T3 sequence (P20813 1-491)": "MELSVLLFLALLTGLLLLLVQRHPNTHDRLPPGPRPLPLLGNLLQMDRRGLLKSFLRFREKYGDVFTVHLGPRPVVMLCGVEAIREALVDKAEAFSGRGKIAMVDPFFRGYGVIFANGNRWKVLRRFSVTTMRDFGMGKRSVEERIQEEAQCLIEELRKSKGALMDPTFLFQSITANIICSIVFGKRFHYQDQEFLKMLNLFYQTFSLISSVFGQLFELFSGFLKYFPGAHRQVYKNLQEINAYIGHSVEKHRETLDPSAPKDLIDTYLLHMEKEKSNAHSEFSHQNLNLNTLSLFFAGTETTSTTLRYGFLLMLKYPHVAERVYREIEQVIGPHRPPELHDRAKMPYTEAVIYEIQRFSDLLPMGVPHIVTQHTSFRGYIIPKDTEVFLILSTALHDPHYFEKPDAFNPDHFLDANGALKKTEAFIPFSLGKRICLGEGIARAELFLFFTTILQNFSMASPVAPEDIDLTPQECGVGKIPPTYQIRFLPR", "test": "CYP450 inhibition panel: CYP2B6", "assay_type": "in vitro ADME", "conditions": "10 μM; data not shown"}, "[17]": {"biological_target": "T4, CYP2C8 (Homo sapiens, UniProt P10632)", "T4 sequence (P10632 1-490)": "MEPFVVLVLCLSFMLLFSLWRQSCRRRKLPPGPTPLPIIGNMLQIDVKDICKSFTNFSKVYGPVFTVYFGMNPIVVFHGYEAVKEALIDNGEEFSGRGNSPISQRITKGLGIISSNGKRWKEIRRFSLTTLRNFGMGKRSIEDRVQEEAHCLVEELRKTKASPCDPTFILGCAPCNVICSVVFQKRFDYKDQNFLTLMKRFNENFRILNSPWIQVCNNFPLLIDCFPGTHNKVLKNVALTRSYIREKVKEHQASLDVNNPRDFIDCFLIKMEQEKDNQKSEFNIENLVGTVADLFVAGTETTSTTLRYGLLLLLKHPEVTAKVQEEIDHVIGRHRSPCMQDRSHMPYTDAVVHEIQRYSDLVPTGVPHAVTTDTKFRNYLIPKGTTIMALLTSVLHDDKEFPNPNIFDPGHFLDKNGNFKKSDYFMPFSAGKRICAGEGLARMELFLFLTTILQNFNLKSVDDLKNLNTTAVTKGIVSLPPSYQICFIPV", "test": "CYP450 inhibition panel: CYP2C8", "assay_type": "in vitro ADME", "conditions": "10 μM; data not shown"}, "[18]": {"biological_target": "CYP2C19 (Homo sapiens, UniProt P33261)", "sequence (P33261 whole entry)": "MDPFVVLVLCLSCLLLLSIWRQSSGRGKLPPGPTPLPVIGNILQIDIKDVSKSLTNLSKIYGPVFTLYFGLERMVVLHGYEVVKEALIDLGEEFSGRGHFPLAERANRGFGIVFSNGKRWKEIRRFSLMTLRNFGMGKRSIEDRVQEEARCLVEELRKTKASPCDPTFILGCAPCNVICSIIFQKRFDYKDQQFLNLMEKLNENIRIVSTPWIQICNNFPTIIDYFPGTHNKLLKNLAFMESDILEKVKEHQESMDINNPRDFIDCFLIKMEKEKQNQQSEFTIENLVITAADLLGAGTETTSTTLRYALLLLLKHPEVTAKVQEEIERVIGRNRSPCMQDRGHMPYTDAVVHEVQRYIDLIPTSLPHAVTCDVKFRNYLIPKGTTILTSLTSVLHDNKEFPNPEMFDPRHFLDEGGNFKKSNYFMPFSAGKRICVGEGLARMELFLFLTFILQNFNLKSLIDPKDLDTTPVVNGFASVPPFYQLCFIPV", "test": "CYP450 inhibition panel: CYP2C19", "assay_type": "in vitro ADME", "conditions": "10 μM; data not shown"}, "[19]": {"system": "maximal electroshock seizure", "conditions": "mice, ip; 95% CI in parentheses; cited from earlier work"}, "[20]": {"system": "maximal electroshock seizure", "conditions": "rat, ip; 95% CI in parentheses; cited from earlier work"}}, "note": "Read-outs that look alike come from different tables or passages of the source."}
{"smiles": "COC[C@@H](NC(C)=O)C(=O)NCc1ccccc1", "note": "[(R)-1, (R)-N-benzyl 2-N-acetamido-3-methoxypropionamide]", "values": [{"measurement": "Tox TD50 (behavioral toxicity)", "setting": "[1]", "value": ">500 [0.5] mg/kg"}, {"measurement": "scMet seizure model: activity", "setting": "[2]", "value": "no activity"}, {"measurement": "IC50", "setting": "[3]", "value": 85, "unit": "µM"}]}
{"smiles": "COC[C@@H](NC(C)=O)C(=O)NCc1ccc(Oc2ccccc2)cc1", "note": "[(R)-3, (R)-N-4′-Phenoxybenzyl 2-N-Acetamido-3-methoxypropionamide]", "values": [{"measurement": "ED50", "setting": "[4]", "value": "10 to 30", "unit": "mg/kg"}, {"measurement": "TD50 at 0.5 h", "setting": "[5]", "value": "30 to 100", "unit": "mg/kg"}, {"measurement": "ED50", "setting": "[6]", "value": "10 to 30", "unit": "mg/kg"}]}
{"smiles": "COC[C@@H](NC(C)=O)C(=O)NCc1ccc(Oc2cccc(F)c2)cc1", "note": "[(R)-4]", "values": [{"measurement": "Tox TD50 (behavioral toxicity)", "setting": "[1]", "value": ">10 [0.25–4.0] mg/kg"}, {"measurement": "6 Hz ED50", "setting": "[7]", "value": "~10 [0.25–0.5] mg/kg"}, {"measurement": "MES ED50", "setting": "[8]", "value": "<10 [0.25–4.0] mg/kg"}]}
{"smiles": "COC[C@@H](NC(C)=O)C(=O)NCc1ccc(Oc2cccc(Cl)c2)cc1", "note": "[(R)-5, (R)-N-4′-((3″-Chloro)phenoxy)benzyl 2-N-Acetamido-3-methoxypropionamide]", "values": [{"measurement": "Effect on transition of VGSCs to the slow-inactivated state", "setting": "[9]", "value": "facilitated the transition of a majority of sodium channels into the slow-inactivated state"}]}
{"smiles": "COC[C@@H](NC(C)=O)C(=O)NCc1ccc(Oc2cccc(C(F)(F)F)c2)cc1", "note": "[(R)-7, (R)-N-4′-((3″-Trifluoromethyl)phenoxy)benzyl2-N-Acetamido-3-methoxypropionamide]", "values": [{"measurement": "ED50", "setting": "[4]", "value": "10 to 100", "unit": "mg/kg"}]}
{"smiles": "COC[C@@H](NC(C)=O)C(=O)NCc1ccc(Oc2cccc(OC)c2)cc1", "note": "[(R)-8, (R)-N-4′-((3″-Methoxy)phenoxy)benzyl 2-N-Acetamido-3-methoxypropionamide]", "values": [{"measurement": "ED50", "setting": "[4]", "value": "30 to 100", "unit": "mg/kg"}]}
{"smiles": "COC[C@@H](NC(C)=O)C(=O)NCc1ccc(Oc2cccc(OC(F)(F)F)c2)cc1", "note": "[(R)-9, (R)-N-4′-((3″-Trifluoromethoxy)phenoxy)benzyl2-N-Acetamido-3-methoxypropionamide]", "values": [{"measurement": "Direct inhibition of CYP1A2", "setting": "[10]", "value": "little or no direct inhibition"}, {"measurement": "Direct inhibition of CYP2D6", "setting": "[11]", "value": "little or no direct inhibition"}, {"measurement": "Steady-state activation properties vs control", "setting": "[12]", "value": "no different"}, {"measurement": "Direct inhibition of CYP2C9", "setting": "[13]", "value": "little or no direct inhibition"}, {"measurement": "Effect on hERG K+ channel activity", "setting": "[14]", "value": "did not affect"}, {"measurement": "Direct inhibition of CYP3A4/5", "setting": "[15]", "value": "little or no direct inhibition"}, {"measurement": "Direct inhibition of CYP2B6", "setting": "[16]", "value": "little or no direct inhibition"}, {"measurement": "Direct inhibition of CYP2C8", "setting": "[17]", "value": "little or no direct inhibition"}, {"measurement": "Direct inhibition of CYP2C19", "setting": "[18]", "value": "little or no direct inhibition"}]}
{"smiles": "C[C@H](NCc1ccc(OCc2cccc(F)c2)cc1)C(N)=O", "note": "[(S)-2, (S)-2-(4′-((3″-fluoro)benzyloxy)benzyl)aminopropionamide]", "values": [{"measurement": "MES ED50", "setting": "[19]", "value": "4.1 (3.0–5.5) mg/kg"}, {"measurement": "IC50", "setting": "[3]", "value": 13, "unit": "µM"}, {"measurement": "MES ED50", "setting": "[8]; 95% CI in parentheses", "value": "12 (10–14) mg/kg"}]}
{"smiles": "O=C1NC(=O)C(c2ccccc2)(c2ccccc2)N1", "note": "[phenytoin]", "values": [{"measurement": "MES ED50", "setting": "[20]", "value": "2.4 (1.4–3.7) mg/kg"}, {"measurement": "MES ED50", "setting": "[8]; 95% CI in parentheses", "value": "28 (21–35) mg/kg"}]}
